This passage reports IC50 results from US8980838B2, “Cyclized peptidomimetic small molecule inhibitors of the WDR5 and MLL1 interaction” (The Regents of the University of Michigan, priority 2011, dated 2015).

Molecules are shown by their SMILES. Like-named read-outs stand apart in the source and are kept apart here. *1 amine or outer side, *2 acyl side, *3 side chain or, on linkers, in order; H or OH if unused. Where a SMILES comes first, the peptide text is derived from it. Bridges are numbered along the chain shown (N, C = ends). [ ]: non-standard residue; d: D form. The star is where a group is joined. dαMeLys(Me) = CN(CCCC[C@@](C)(N[*:1])C(=O)[*:2])[*:3]; dPhg(4-F) = N[C@@H](C(=O)O)c1ccc(F)cc1; dPhg = N[C@@H](C(=O)O)c1ccccc1; Isobutyryl = CC(C)C(=O)*; Abu = CC[C@H](N)C(=O)O Where only a bound is given, the exact number is not on record here.

The target in the experiment is T1, WDR5 (Homo sapiens, UniProt P61964).
T1 construct: N-terminal His-tagged WDR5Δ23 (residues 24-334) was expressed from the pET28-MHL vector; His tag (N); made in house; host or cells: Rosetta2(DE3) pLysS cells (E. coli)
Kind of experiment: fluorescence-polarization based competitive binding assay. How it is done:
Binding Assay Protein Expression and Purification for the Binding Assay
Cells were grown to OD600=0.4-0.6 in 4 L 2×TY at 30° C., induced with 0.1 mM IPTG at 16° C. for 16 hours and harvested in 20 mM HEPES pH 7.5, 500 mM KCl, 10% glycerol, 0.1 mg/ml PMSF, 0.05% NP40. Cells were lysed by addition of 0.2 mg/ml hen egg white lysozyme followed by sonication and clarification by centrifuging for 30 minutes at 15,000 rpm. The resin was washed 3 times for 10 minutes with 40 ml lysis buffer. His-WDR5Δ23 was eluted from the resin by 3×15 minute elutions with 20 mM HEPES pH 7.5, 100 mM KCl, 10% glycerol, 250 mM imidazole pH 7.5. […] Concentrated protein was aliquoted and samples were frozen on dry ice and stored at −80° C.
The IC50 value of the inhibitors were calculated using GraphPad Prism 4 software.
Competitive Binding Experiments
The binding affinities of the synthetic peptides shown in the study were measured using this competitive binding assay described earlier (31). A pre-incubated complex solution of WDR5Δ23 and the tracer in 120 μl assay buffer were added to dilutions of the test compound in 5 μl DMSO, giving final concentrations of WDR5Δ23 and the tracer of 4 nM and 0.6 nM, respectively. […] The plates were incubated with shaking at room temperature. The mP values were measured after five hours of incubation and Ki values were calculated using the equation described previously (32).

Where [1] appears, read: FP competitive binding, WDR5Δ23 4 nM, tracer 0.6 nM, five hours incubation, first cyclic series (Table 1), read-out: IC50, binding affinity to WDR5.
Where [2] appears, read: FP competitive binding, WDR5Δ23 4 nM, tracer 0.6 nM, five hours incubation, Table 2 series, read-out: IC50, binding affinity to WDR5.
Where [3] appears, read: FP competitive binding, WDR5Δ23 4 nM, tracer 0.6 nM, five hours incubation, Table 3 series, read-out: IC50, binding affinity to WDR5.

On to `CCC1(CC)NC(=O)CCCCNC(=O)[C@H](CCCNC(=N)N)NC1=O` [Compound 4a], for which the 50% inhibitory concentration (IC50) – broadly, the point on the concentration scale where inhibition reaches its midpoint – under setting [1] is greater than 100 µM.

As for `CCC1(CC)NC(=O)CCCCCNC(=O)[C@H](CCCNC(=N)N)NC1=O` [Compound 4b], the concentration for half-maximal inhibition (IC50) under setting [1] is greater than 100 µM.

For `CCC1(CC)NC(=O)CCCCCCNC(=O)[C@H](CCCNC(=N)N)NC1=O` [Compound 4c], under setting [1], the IC50 is greater than 100 µM. Same read-out and setting: the value for `CCC1(CC)NC(=O)CCCCCCCNC(=O)[C@H](CCCNC(=N)N)NC1=O` [Compound 4d] was greater than 1 µM; that for `CCC1(CC)NC(=O)CCCCCCCCNC(=O)[C@H](CCCNC(=N)N)NC1=O` [Compound 4e] was greater than 1 µM. The same measure, in the same setting: the value for `CCC1(CC)NC(=O)CCCCCCCN(C(C)=O)C[C@H](CCCNC(=N)N)NC1=O` [Compound 14] was greater than 100 µM; that for `CCC1(CC)NC(=O)CCCCCCCNC[C@H](CCCNC(=N)N)NC1=O` [Compound 15] was greater than 100 µM.

Regarding `CC[C@@H]1NC(=O)[C@H](CCCNC(=N)N)NC(=O)[C@](C)(NC(=O)C(C)C)CCCCCNC1=O` [Compound 19a], the IC50 under setting [2] was less than 1 µM. For `CC[C@@H]1NC(=O)[C@H](CCCNC(=N)N)NC(=O)[C@](C)(NC(=O)C(C)C)CCCCCCNC1=O` [Compound 19b], under setting [2], the concentration for half-maximal inhibition (IC50) is less than 0.01 µM. Still for that read-out and setting: the value for `CC[C@@H]1NC(=O)[C@H](CCCNC(=N)N)NC(=O)[C@](C)(NC(=O)C(C)C)CCCCCCCCNC1=O` [Compound 19c] was less than 0.01 µM. On the same count and under the same terms, the value for `CC[C@@H]1NC(=O)[C@H](CCCNC(=N)N)NC(=O)[C@](C)(NC(=O)C(C)C)CCCCCCNC(=O)[C@@H](c2ccccc2)NC1=O` [Compound 29b] was less than 0.01 µM. Same read-out and setting: for `CC[C@@H]1NC(=O)[C@H](CCCNC(=N)N)NC(=O)[C@](C)(NC(=O)C(C)C)CCCCCCNC(=O)[C@H](c2ccccc2)NC1=O` [Compound 29c] the value was less than 0.01 µM. Turning to `CC[C@@H]1NC(=O)[C@H](CCCNC(=N)N)NC(=O)[C@](C)(NC(=O)C(C)C)CCCCN(C)C(=O)[C@@H](c2ccccc2)NC1=O` [Compound 29d] (Isobutyryl-[dαMeLys(Me)]R[Abu][dPhg]; lactam 1-C), the IC50 is less than 0.01 µM. Same read-out and setting: the value for `CC[C@@H]1NC(=O)[C@H](CCCNC(=N)N)NC(=O)[C@](C)(NC(=O)C(C)C)CCCCN(C)C(=O)[C@@H](c2ccc(F)cc2)NC1=O` [Compound 29e] (Isobutyryl-[dαMeLys(Me)]R[Abu][dPhg(4-F)]; lactam 1-C) was less than 0.01 µM; that for `CC[C@@H]1NC(=O)[C@H](CCCNC(=N)N)NC(=O)[C@](C)(NC(=O)C(C)C)CCCCN(C)C(=O)[C@@H](c2ccc(Cl)cc2)NC1=O` [Compound 29f] was less than 0.01 µM. On to `CC[C@@H]1NC(=O)[C@H](CCCNC(=N)N)NC(=O)[C@@](C)(NC(=O)C(C)C)CCCCCCCNC1=O` [Compound 34c], for which the concentration for half-maximal inhibition (IC50) under setting [3] was less than 1 µM. For `CC[C@@H]1NC(=O)[C@H](CCCNC(=N)N)NC(=O)[C@@](C)(NC(=O)C(C)C)CCCCCCCCNC1=O` [Compound 34d], the 50% inhibitory concentration (IC50) under setting [3] was less than 1 µM. The same measure, in the same setting: for `CC[C@@H]1NC(=O)[C@H](CCCNC(=N)N)NC(=O)[C@@](C)(NC(=O)C(C)C)CCCCCCNC(=O)[C@H](c2ccccc2)NC1=O` [Compound 36] the value was less than 1 µM.
